Test system: hRXR α, β, or γ
Experiment: Transactivation assay (RARE-Luc dual luciferase reporter in HEK-293 cells), activity relative to LG268
Format: cell-based, human
Conditions: compound at 1 µM, 24 h; luciferase activity expressed relative to LG268
Description: HEK-293 cells (ATCC) were seeded one day prior to transfection. For assessing EC50 of activation of RXR isoforms 2 μg of hRXR α, β, or γ (OriGENE, USA) over-expressing vector, 1 μg of plasmid expressing firefly luciferase under RARE element (RARE-Luc) and 25 ng of renilla luciferase vector (QIAGEN, USA) were co-transfected using lipofectamine reagent. Post 24 h of transfection, cells were treated with different concentrations of RXR agonists (100 nM, 300 nM and 1 uM) for 24 h followed by estimation of luciferase activity using Dual Luciferase Reporter Assay System (Promega). Luciferase activity was normalized to that of renilla luciferase. The activities of the RXR compounds were expressed relative to LG268, a known RXR agonist.

Structure (SMILES) | Activity at 1 µM
C=C(c1ccc(C(=O)O)cc1)c1sc2c(c1C)C(C)(C)CCC2(C)C [Compound 1, 4-[1-(3,4,4,7,7-Pentamethyl-4,5,6,7-tetrahydro-1-benzothiophen-2-yl)ethenyl]benzoic acid] | ***** (>1)
Cc1c(C2(c3ccc(C(=O)O)cc3)CC2)sc2c1C(C)(C)CCC2(C)C [Compound 2, 4-[1-(3,4,4,7,7-pentamethyl-4,5,6,7-tetrahydro-1-benzothiophen-2-yl)cyclopropyl]benzoic acid] | ***** (>1)
Cc1c(/C(=N/O)c2ccc(C(=O)O)cc2)sc2c1C(C)(C)CCC2(C)C [Compound 3, 4-[(E)-(Hydroxyimino) (3,4,4,7,7-pentamethyl-4,5,6,7-tetrahydro-1-benzothiophen-2-yl)methyl]benzoic acid] | ***** (>1)
CO/N=C(\c1ccc(C(=O)O)cc1)c1sc2c(c1C)C(C)(C)CCC2(C)C [Compound 4, 4-[(E,Z)-(Methoxyimino) (3,4,4,7,7-pentamethyl-4,5,6,7-tetrahydro-1-benzothiophen-2-yl)methyl]benzoic acid] | **** (>0.9 to <1)
Cc1c(C(=O)c2ccc(C(=O)O)cn2)sc2c1C(C)(C)CCC2(C)C [Compound 5, 6-[(3,4,4,7,7-Pentamethyl-4,5,6,7-tetrahydro-1-benzothiophen-2-yl)carbonyl]pyridine-3-carboxylic acid] | ** (>0.7 and <0.8)
C=C(c1ccc(C(=O)O)cn1)c1sc2c(c1C)C(C)(C)CCC2(C)C [Compound 6, 6-[1-(3,4,4,7,7-Pentamethyl-4,5,6,7-tetrahydro-1-benzothiophen-2-yl)ethenyl]pyridine-3-carboxylic acid] | *** (>0.8 and <0.9)
Cc1c(C2(c3ccc(C(=O)O)cn3)CC2)sc2c1C(C)(C)CCC2(C)C [Compound 7, 6-[1-(3,4,4,7,7-Pentamethyl-4,5,6,7-tetrahydro-1-benzothiophen-2-yl)cyclopropyl]pyridine-3-carboxylic acid] | ***** (>1)
Cc1c(N(C)c2ccc(C(=O)O)cc2)sc2c1C(C)(C)CCC2(C)C [Compound 8, 4-[Methyl(3,4,4,7,7-pentamethyl-4,5,6,7-tetrahydro-1-benzothiophen-2-yl)amino]benzoic acid] | ***** (>1)
CCN(c1ccc(C(=O)O)cc1)c1sc2c(c1C)C(C)(C)CCC2(C)C [Compound 9, 4-[Ethyl(3,4,4,7,7-pentamethyl-4,5,6,7-tetrahydro-1-benzothiophen-2-yl)amino]benzoic acid] | *** (>0.8 and <0.9)
Cc1c(N(c2ccc(C(=O)O)cc2)C2CC2)sc2c1C(C)(C)CCC2(C)C [Compound 10, 4-[Cyclopropyl(3,4,4,7,7-pentamethyl-4,5,6,7-tetrahydro-1-benzothiophen-2-yl)amino]benzoic acid] | ***** (>1)
Cc1c(N(CC2CC2)c2ccc(C(=O)O)cc2)sc2c1C(C)(C)CCC2(C)C [Compound 11, 4-[(Cyclopropylmethyl) (3,4,4,7,7-pentamethyl-4,5,6,7-tetrahydro-1-benzothiophen-2-yl)amino]benzoic acid] | **** (>0.9 to <1)
Cc1c(N(c2ccc(C(=O)O)cc2)C(C)C)sc2c1C(C)(C)CCC2(C)C [Compound 13, 4-[(3,4,4,7,7-Pentamethyl-4,5,6,7-tetrahydro-1-benzothiophen-2-yl) (propan-2-yl)amino]benzoic acid] | ** (>0.7 and <0.8)
Cc1c(N(c2ccc(C(=O)O)cc2)S(C)(=O)=O)sc2c1C(C)(C)CCC2(C)C [Compound 14, 4-[(Methylsulfonyl) (3,4,4,7,7-pentamethyl-4,5,6,7-tetrahydro-1-benzothiophen-2-yl)amino]benzoic acid] | **** (>0.9 to <1)
COc1ccc(/C=C/C(=O)O)cc1-c1sc2c(c1C)C(C)(C)CCC2(C)C [Compound 15, (2E)-3-[4-Methoxy-3-(3,4,4,7,7-pentamethyl-4,5,6,7-tetrahydro-1-benzothiophen-2-yl)phenyl]prop-2-enoic acid] | ** (>0.7 and <0.8)
COc1ccc(C2CC2C(=O)O)cc1-c1sc2c(c1C)C(C)(C)CCC2(C)C (stereo not shown) [Compound 16, 2-[4-Methoxy-3-(3,4,4,7,7-pentamethyl-4,5,6,7-tetrahydro-1-benzothiophen-2-yl)phenyl]cyclopropanecarboxylic acid] | * (<0.7)
Cc1c(N(C)c2ccc(C(=O)O)cn2)sc2c1C(C)(C)CCC2(C)C [Compound 17, 6-[Methyl(3,4,4,7,7-pentamethyl-4,5,6,7-tetrahydro-1-benzothiophen-2-yl)amino]pyridine-3-carboxylic acid] | ***** (>1)
CCN(c1ccc(C(=O)O)cn1)c1sc2c(c1C)C(C)(C)CCC2(C)C [Compound 18, 6-[Ethyl(3,4,4,7,7-pentamethyl-4,5,6,7-tetrahydro-1-benzothiophen-2-yl)amino]pyridine-3-carboxylic acid] | ***** (>1)
Cc1c(N(c2ccc(C(=O)O)cn2)C2CC2)sc2c1C(C)(C)CCC2(C)C [Compound 19, 6-[Cyclopropyl(3,4,4,7,7-pentamethyl-4,5,6,7-tetrahydro-1-benzothiophen-2-yl)amino]pyridine-3-carboxylic acid] | ***** (>1)
Cc1c(N(CC2CC2)c2ccc(C(=O)O)cn2)sc2c1C(C)(C)CCC2(C)C [Compound 20, 6-[(Cyclopropylmethyl) (3,4,4,7,7-pentamethyl-4,5,6,7-tetrahydro-1-benzothiophen-2-yl)amino]pyridine-3-carboxylic acid] | ***** (>1)
Cc1c(N(c2ccc(C(=O)O)cn2)C(C)C)sc2c1C(C)(C)CCC2(C)C [Compound 21, 6-[(3,4,4,7,7-Pentamethyl-4,5,6,7-tetrahydro-1-benzothiophen-2-yl) (propan-2-yl)amino]pyridine-3-carboxylic acid] | ***** (>1)
Cc1c(N(c2ccc(C(=O)O)cn2)S(C)(=O)=O)sc2c1C(C)(C)CCC2(C)C [Compound 22, 6-[(Methylsulfonyl) (3,4,4,7,7-pentamethyl-4,5,6,7-tetrahydro-1-benzothiophen-2-yl)amino]pyridine-3-carboxylic acid] | ***** (>1)
Cc1c(N(C)c2ncc(C(=O)O)cn2)sc2c1C(C)(C)CCC2(C)C [Compound 23, 2-[Methyl(3,4,4,7,7-pentamethyl-4,5,6,7-tetrahydro-1-benzothiophen-2-yl)amino]pyrimidine-5-carboxylic acid] | *** (>0.8 and <0.9)
Cc1c(N(c2ncc(C(=O)O)cn2)C2CC2)sc2c1C(C)(C)CCC2(C)C [Compound 24, 2-[Cyclopropyl(3,4,4,7,7-pentamethyl-4,5,6,7-tetrahydro-1-benzothiophen-2-yl)amino]pyrimidine-5-carboxylic acid] | *** (>0.8 and <0.9)
Cc1c(NC(=O)c2ccc(C(=O)O)cc2)sc2c1C(C)(C)CCC2(C)C [Compound 25, 4-[(3,4,4,7,7-Pentamethyl-4,5,6,7-tetrahydro-1-benzothiophen-2-yl)carbamoyl]benzoic acid] | * (<0.7)
Cc1c(N(C)c2ccc(C(=O)O)cn2)sc2c1C(C)(C)CCC2 [Compound 26, 6-[Methyl(3,4,4-trimethyl-4,5,6,7-tetrahydro-1-benzothiophen-2-yl)amino]pyridine-3-carboxylic acid] | * (<0.7)

Source: US9862713B2, “Substituted bicyclic heteroaryl compounds as RXR agonists” (CONNEXIOS LIFE SCIENCES PVT. LTD., priority 2014, dated 2018)
